Measurements from the supplement of paper PMC11451515.

Assays:
Assay in all cases: AUC of viability dose-response curve (% viability x log10 dose units); higher = less sensitive
Conditions in all cases: 48 h
NOMO1 = test system: NOMO1
Summary of the method: (§1)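 Viability of medium-adapted leukemia cells was measured by CellTiter-Glo One luminescence after 48 h at 37°C with library compounds in DMSO. Doses were 11 threefold steps from 47 μM to 0.79 nM, in 1536-well plates at 500 or 1000 cells/well. Signals were normalised per plate to DMSO and cell-free wells and fitted with a four-parameter log-logistic model on log10 dose. Area under the curve was integrated by trapezoidal rule, with curves exceeding full viability scaled and failed quality-control curves removed.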

P12-Ichikawa = test system: P12-Ichikawa
Summary of the method: as §1

SEM cells = test system: SEM cells
Summary of the method: as §1

[1] = RPMI 5 mM glucose + 10% dialyzed FBS

| SMILES | AUC of viability dose-response curve (NOMO1; HPLM + 10% dialyzed FBS) | AUC of viability dose-response curve (NOMO1; RPMI 5 mM glucose + 10% FBS) | AUC of viability dose-response curve (NOMO1; [1]) | AUC of viability dose-response curve (P12-Ichikawa; HPLM + 10% dialyzed FBS) | AUC of viability dose-response curve (P12-Ichikawa; RPMI 5 mM glucose + 10% FBS) | AUC of viability dose-response curve (P12-Ichikawa; [1]) | AUC of viability dose-response curve (SEM cells; HPLM + 10% dialyzed FBS) | AUC of viability dose-response curve (SEM cells; RPMI 5 mM glucose + 10% FBS) | AUC of viability dose-response curve (SEM cells; [1]) |
| --- | --- | --- | --- | --- | --- | --- | --- | --- | --- |
| N[S+](=O)([O-])c1cccc2c1C(=O)c1cccc(O)c1C2=O | 434 | 452 | 443 | 439 | 451 | 447 | 343 | 295 | 278 |
| C[C@]12CC[C@H]3[C@@H](CCC/4=C/C(=O)CC[C@]34C)[C@@H]1CC[C@@H]2O | 463 | 460 | 462 | 468 | 467 | 470 | 467 | 450 | 444 |
| O=C(c1ccc(F)c(F)c1Nc1ccc(I)cc1F)N1CC(O)([C@@H]2CCCCN2)C1 | 305 | 292 | 304 | 410 | 403 | 419 | 410 | 434 | 425 |
| CC[C@H](C)C(=O)O[C@H]1C[C@H](O)\C=C2\C=C/[C@H](C)[C@H](CC[C@@H](O)C[C@@H](O)CC(O)=O)[C@@H]12 | 441 | 457 | 462 | 447 | 460 | 464 | 458 | 464 | 470 |
| COC1=CC=CC(=C1N)\C2=C\C(=O)C3=C(O2)C=CC=C3 | 464 | 466 | 463 | 469 | 459 | 465 | 432 | 428 | 419 |
| CC(/C=C/C(=O)NO)=C\[C@@H](C)C(=O)c1ccc(N(C)C)cc1 | 337 | 339 | 336 | 325 | 315 | 316 | 290 | 295 | 292 |
| COC1=CC=C(C=C1O)C/2=C/C(=O)C3=C(O2)C=C(O)C=C3O | 466 | 428 | 437 | 440 | 446 | 381 | 419 | 456 | 456 |
| CN1CCC[C@@H]1CCO[C@](C)(c1ccccc1)c1ccc(Cl)cc1 | 466 | 461 | 473 | 463 | 467 | 474 | 469 | 472 | 471 |
| [O-]C(=O)C1=C(C(=C(Cl)C(=C1Cl)Cl)Cl)C/2=C/3\C=C(I)/C(=O)/C(=C3OC4=C2C=C(I)C(=C4I)[O-])I | 474 | 451 | 457 | 446 | 450 | 445 | 466 | 464 | 462 |
| NCCCCNCCCN | 438 | 460 | 460 | 458 | 434 | 445 | 373 | 427 | 388 |
| Cc1cc(C(=O)N2CCN(c3cccc(Cl)c3)CC2)n(-c2ccccc2)n1 | 364 | 389 | 375 | 349 | 373 | 374 | 354 | 368 | 357 |
| ClC1=CC\2=C(NC(=O)\C(=C2N[C@@H]3CN4CCC3CC4)C5=NC6=C([NH]5)C=CC=C6)C=C1 | 286 | 257 | 276 | 302 | 263 | 291 | 211 | 200 | 218 |
| CN1c2ccccc2C(=O)N2CCc3c([nH]c4ccccc34)C21 (stereo not given) | 445 | 466 | 434 | 470 | 454 | 451 | 453 | 438 | 459 |
| ClC1=CC\2=C(OC3=C(C=CC=C3)\N=C2N4CCNCC4)C=C1 | 450 | 434 | 437 | 468 | 438 | 462 | 466 | 437 | 467 |
| CC[C@]12\C=C/CN3CC[C@]4([C@@H](N(C)C5=CC(=C(C=C45)[C@]6(C[C@H]7C[C@H](CN(C7)CC8=C6[NH]C9=C8C=CC=C9)C(C)(F)F)C(=O)OC)OC)[C@](O)([C@@H]1OC(C)=O)C(=O)OC)[C@H]23 | 256 | 221 | 250 | 189 | 176 | 212 | 215 | 179 | 196 |
| O=C(Nc1ncc(SCCN2CCCC2)s1)[C@]1(c2ccc([S+](=O)([O-])C3CC3)cc2)C[C@H]1C1CCCCC1 | 428 | 451 | 446 | 455 | 459 | 445 | 390 | 461 | 420 |
| CN1\N=C(N)/C2=C[N]([C@@H]3O[C@H](CO[P](O)(O)=O)[C@@H](O)[C@H]3O)C4=C2C1=NC=N4 | 341 | 393 | 347 | 353 | 329 | 346 | – | – | – |
| CNCc1ccc(-c2[nH]c3cc(F)cc4c3c2CCNC4=O)cc1 | 474 | 466 | 461 | 470 | 474 | 467 | 439 | 434 | 460 |
| COc1ccc(C2Sc3ccccc3N(CCN(C)C)C(=O)C2OC(C)=O)cc1 (stereo not given) | 469 | 463 | 460 | 467 | 468 | 445 | 473 | 469 | 474 |
| O=C\1N(N\C=C1[N]2C=CN=N2)C3=NC=NC(=C3)N4CCOCC4 | 221 | 210 | 222 | 211 | 225 | 248 | – | – | – |
| Cn1cc(/C=C2\C(=O)Nc3cccnc32)c2ccccc21 | 464 | 451 | 449 | 414 | 442 | 437 | 430 | 421 | 415 |
| CCC(=O)N[C@H]1CC[C@H](C(=O)N(C)c2ccc(-c3nc4ccccc4o3)cc2)C1 | 454 | 449 | 415 | 477 | 458 | 453 | – | – | – |
| C[C@@H](NC(=O)c1ncnc(N)c1Cl)c1ncc(C(=O)Nc2cc(C(F)(F)F)c(Cl)cn2)s1 | 451 | 460 | 453 | 461 | 449 | 448 | 470 | 467 | 467 |
| C=CC(=O)Nc1cccc(Nc2nc(NC3CCC(N(C)C)CC3)nc3c2ncn3C(C)C)c1 (stereo not given) | 348 | 361 | 350 | 366 | 366 | 377 | 319 | 340 | 320 |

| SMILES | AUC of viability dose-response curve (NOMO1; HPLM + 10% dialyzed FBS) | AUC of viability dose-response curve (NOMO1; RPMI 5 mM glucose + 10% FBS) | AUC of viability dose-response curve (NOMO1; [1]) | AUC of viability dose-response curve (P12-Ichikawa; HPLM + 10% dialyzed FBS) | AUC of viability dose-response curve (P12-Ichikawa; RPMI 5 mM glucose + 10% FBS) | AUC of viability dose-response curve (P12-Ichikawa; [1]) | AUC of viability dose-response curve (SEM cells; HPLM + 10% dialyzed FBS) | AUC of viability dose-response curve (SEM cells; RPMI 5 mM glucose + 10% FBS) | AUC of viability dose-response curve (SEM cells; [1]) |
| --- | --- | --- | --- | --- | --- | --- | --- | --- | --- |
| CC1(C)CNc2cc(NC(=O)c3cccnc3NCc3ccncc3)ccc21 | 419 | 468 | 470 | 461 | 446 | 455 | – | – | – |
| CN1\C(=C(\O)C2=C(C=CC=C2)[S+]1([O-])=O)C(=O)NC3=CC=CC=N3 | 422 | 428 | 461 | 397 | 400 | 425 | – | – | – |
| CN(C)CCN(C)C(=O)c1ccc(NC(=O)Nc2ccc(-c3nc(N4CCOCC4)c4ccn(CC(F)(F)F)c4n3)cc2)cc1 | 327 | 393 | 371 | 417 | 359 | 360 | 339 | 325 | 341 |
| CC(C)C[C@H](NC(=O)CNC(=O)c1cc(Cl)ccc1Cl)B(O)O | – | – | – | – | – | – | 190 | 190 | 177 |
| Cn1c(=O)n(-c2ccc(C(C)(C)C#N)cc2)c2c3cc(-c4cnc5ccccc5c4)ccc3ncc21 | 344 | 354 | 315 | 337 | 315 | 325 | – | – | – |
| C/C(O)=C(\C#N)C(=O)Nc1cc(Br)ccc1Br | 420 | 439 | 442 | 462 | 469 | 449 | 441 | 442 | 434 |
| CCC(=C/[C@H](C)C/C=C/C(C)=C/[C@@H](C)C(=O)[C@@H](C)[C@H](O)[C@@H](C)C/C(C)=C/C(=O)O)/C=C/[C@@H]1OC(=O)C=C[C@@H]1C | 351 | 365 | 355 | 361 | 355 | 359 | – | – | – |
| CN1CCCC(CC1)N2\N=C(CC3=CC=C(Cl)C=C3)/C4=C(C=CC=C4)C2=O (stereo not given) | 440 | 457 | 461 | 455 | 466 | 461 | 468 | 394 | 464 |
| COc1ccc2[nH]c([S+]([O-])Cc3ncc(C)c(OC)c3C)nc2c1 (stereo not given) | 411 | 434 | 418 | 427 | 398 | 363 | 354 | 411 | 392 |
| c1ccc(CNc2nc(N3CCOc4ccccc43)nc3c2CCCC3)cc1 | 468 | 473 | 470 | 461 | 476 | 472 | 455 | 428 | 451 |
| CN1C(=O)C[C@H](C(=O)N[C@@H](Cc2cnc[nH]2)C(=O)N2CCC[C@H]2C(N)=O)NC1=O | 462 | 463 | 435 | 462 | 464 | 470 | 456 | 435 | 459 |
| C=CCc1cccc(/C=N/NC(=O)CN2CCN(Cc3ccccc3)CC2)c1O | 419 | 448 | 433 | 420 | 424 | 417 | 399 | 411 | 378 |
| Cc1cc(Nc2cc(CN3CCOCC3)c3nc(C)c(Cc4ccc(Cl)cc4F)n3n2)[nH]n1 | 429 | 424 | 422 | 436 | 428 | 439 | 342 | 317 | 310 |
| NC(=O)C1CCCc2c1[nH]c1ccc(Cl)cc21 (stereo not given) | 370 | 401 | 404 | 417 | 436 | 421 | 343 | 381 | 365 |
| CN1CCN2c3ncccc3Cc3ccccc3C2C1 (stereo not given) | – | – | – | 470 | 460 | 463 | – | – | – |
| NC(=O)c1cccc2nc(-c3ccc([C@H]4CCCN4)cc3F)[nH]c12 | 464 | 472 | 466 | 463 | 466 | 465 | 398 | 363 | 362 |
| C[C@]12CC[C@@H]3c4ccc(O)cc4CC[C@H]3[C@@H]1C[C@@H](O)[C@@H]2O | 436 | 463 | 447 | 466 | 468 | 466 | 468 | 419 | 454 |
| CN[C@@H](C)C(=O)N[C@H]1CN(C(=O)CC(C)C)CC[C@H]2CC[C@@H](C(=O)NC(c3ccccc3)c3ccccc3)N2C1=O | 317 | 336 | 361 | 411 | 406 | 424 | 431 | 406 | 423 |
| COc1cc2c(Nc3ccc(Br)cc3F)ncnc2cc1OCC1CCN(C)CC1 | 373 | 373 | 380 | 419 | 396 | 398 | – | – | – |
| CC(C)c1cc(C(=O)N2Cc3ccc(CN4CCN(C)CC4)cc3C2)c(O)cc1O | 320 | 317 | 323 | 374 | 342 | 348 | – | – | – |
| CNC[C@H](O)c1cccc(O)c1 | – | – | – | – | – | – | 410 | 388 | 417 |
| CC[C@@]1(O)C(=O)OCC/2=C1/C=C3\N(CC4=CC5=CC(=CC=C5N=C34)O)C2=O | 251 | 261 | 271 | 180 | 176 | 181 | – | – | – |
| Nc1nnc(-c2cccc(Cl)c2Cl)c(N)n1 | – | – | – | – | – | – | 425 | 402 | 418 |
| COC/1=C/C=C2\C(=C/C1=O)[C@H](CCC3=CC(=C(OC)C(=C23)OC)OC)NC(C)=O | – | – | – | 54.5 | 46.5 | 64.7 | 80.3 | 49.8 | 54.6 |
